{"source": "patent US9616066B2", "about": "“Therapy for constipation” (priority 2012, dated 2017)", "key": {"[1]": {"test_system": "constipation related to dehydration, post-gastroenteritis", "test": "Case Example 4: orlistat for constipation related to post-infection and dehydration", "assay_type": "in vivo, human", "experimental": "A person travelled to Mexico and while there developed acute gastroenteritis. The patient was of average weight (not overweight). They began experiencing vomiting and diarrhea while there. They became dehydrated and eventually was transferred to their home in Canada. The virus had cleared one day after arriving back in Canada. They began eating and drinking but had developed constipation related to post-infection and dehydration. They were given orlistat (120 mg orally once daily with food) by their doctor for one week and this resolved their constipation within 24 hours. […] The improvement was such that after seven days that when they stopped the medication (orlistat), they were able to return to their normal diet."}, "[2]": {"test_system": "paralytic bowel, chronic constipation", "test": "Case Example 5: orlistat for paralytic bowel after spinal cord transection", "assay_type": "in vivo, human", "details": "orlistat 120 mg three times a day with food", "description": "A person of average weight (not overweight) suffered a thoracic spinal injury with transection of the spinal cord resulting in complete paralysis below the third thoracic vertebrae. They went on to develop full paralysis of their muscles below T-3 including the skeletal muscles and smooth muscles of the gut. They developed a paralytic bowel contributing to chronic constipation with overflow and diarrhea. They required regular manual disempaction and Fleet enemas to manage their chronic constipation. The patient was given orlistat (120 mg one pill three times a day with food) by their doctor."}, "[3]": {"test_system": "chronic constipation after bowel resection/colostomy", "test": "Case Example 7: orlistat for constipation after partial bowel resection with colostomy", "assay_type": "in vivo, human", "description": "person suffering from bowel cancer was given a partial bowel resection with a colostomy and bag. They complained that since their bowel surgery they suffered chronic constipation and hard stools. […] It would sometimes be so hard it could injure and cause bleeding to the ostomy site."}, "[4]": {"test_system": "constipation related to deconditioning/bedridden", "test": "Case Example 8: orlistat for constipation related to being bedridden", "assay_type": "in vivo, human", "experimental": "His stools and bowel function gradually became more regular allowing for a reduction of dose of the orlistat (to one 120 mg oral pill twice per day with food) as maintenance."}, "[5]": {"test_system": "fibromyalgia, irritable bowel syndrome, chronic abdominal pain", "test": "Case Example 9: orlistat in fibromyalgia patient with irritable bowel syndrome", "assay_type": "in vivo, human", "description": "This case involves a person with a 15 year history of fibromyalgia. The person reported chronic pain involving the neck, lower back, migraine headaches, abdominal bloating, and constipation with occasional diarrhea. They had been diagnosed with fibromyalgia about 10 years prior, and had chronic abdominal pain, bloating and a formal diagnosis of irritable bowel syndrome. […] Serology, abdominal x-rays, ultrasound of the abdomen and pelvis, were normal. […] There were no masses or any signs of acute surgical abdomen. They were taking Lyrica™ 75 mg twice a day, Flexeril™ 10 mg twice a day as needed, Percocet™ 2 twice a day as needed, and Celebrex™ 200 mg once a day. They were given orlistat (120 mg, twice a day as needed to take with food), and they noted that their constipation resolved, their bloating resolved, their occasional diarrhea resolved, and their abdominal pain resolved."}, "[6]": {"test_system": "irritable bowel syndrome, chronic abdominal pain", "test": "Case Example 10: orlistat in person with irritable bowel syndrome", "assay_type": "in vivo, human", "details": "over 4 to 6 weeks", "description": "This case involves a non-overweight person with a history of irritable bowel syndrome. The person reported chronic abdominal pain and bloating, minor occasional constipation, minor occasional diarrhea, and lower back pain for the past five years. They were otherwise well. They had 2 colonoscopies, and an ultrasound of the abdomen and pelvis, all of which were normal. They were also taking an oral dose of B12. They were on other medications as well. […] There was no rebound or rigidity. They had no enlargement of any organs. They had tenderness globally around their abdomen, tightness of the iliopsoas bilaterally and oblique muscles. Their bowels were tender, and they were chronically uncomfortable and in pain. They were treated with orlistat (120 mg, once or twice a day as needed with food). […] They felt generally better, and was able to stop taking vitamin B12 because the absorption of […] B12 improved with their improved bowel function. Thus, orlistat was useful to treat IBD."}, "[7]": {"test_system": "irritable bowel syndrome and heartburn", "test": "Case Example 11: orlistat in person with irritable bowel syndrome and heartburn", "assay_type": "in vivo, human", "details": "orlistat 120 mg, one per day on average", "description": "This example relates to a person with a 20 year history of irritable bowel syndrome and heartburn. The person reported chronic abdominal pain with bloating, occasional constipation or diarrhea, and epigastric discomfort for over 20 years. They had four colonoscopies over that period of time, and 2 endoscopies of the stomach. […] They also had ultrasounds of the abdomen and pelvis which were normal. They had 2 chest x-rays and an MRI of the abdomen, each of which were normal. They were taking Losec™ for their heartburn which was controlled. They were also taking low dose Atenolol™ for their blood pressure as they had developed some minor hypertension. They were otherwise well. […] There were no masses, rebound or rigidity. There were no organs that were tender or enlarged. They complained of persistent heartburn despite being on Losec™ and abdominal pain. They were treated with orlistat (120 mg, twice a day each with a meal to be reduced or increased as required up to three per day). They reported that they only required one per day on average and occasionally a second tablet. […] They became more flexible in their abdomen and lower back. They were more comfortable in their walking. Thus, orlistat was useful to treat IBD."}, "[8]": {"test_system": "opiate-related constipation"}, "[9]": {"test_system": "non-opiate medication-related constipation", "test": "Case Example 2: cetilistat for constipation related to amitriptyline (non-opiate medication)", "assay_type": "in vivo, human", "experimental": "A person with fibromyalgia being treated with the tricyclic antidepressant, amitriptyline, suffered from a global pain disorder requiring pain management. They were of average weight, not over-weight. They were treated with amitriptyline that is a known therapeutic agent for mild to moderate fibromyalgia. This tricyclic antidepressant is also known for causing dry mouth, blurry vision and constipation."}, "[10]": {"test_system": "lazy bowel and age-related constipation", "test": "Case Example 3: cetilistat for constipation in person (non-opiate medications, dehydration, lazy bowel)", "assay_type": "in vivo, human", "details": "cetilistat 60 mg twice daily", "description": "Person living in a nursing home with mild dementia complained of painful bowel movements causing an anal fissure with bleeding in their rectum. The cause of their constipation was deemed to be due to a combination of non-opiate medications, dehydration, and a lazy bowel. The patient also complained of abdominal distention and some intermittent abdominal discomfort. The patient was not overweight. […] They had abdominal pain with conventional bowel stimulants. […] The cetilistat resolved the constipation in an acute case and allowed for long-term recovery from a constipation-related complication. Further, it was effective in the treatment of lazy bowel and age-related constipation."}, "[11]": {"test_system": "constipation related to menstrual cycle", "test": "Case Example 6: cetilistat for constipation related to menstrual cycle", "assay_type": "in vivo, human", "details": "cetilistat 60 mg oral once a day with food, as needed", "description": "This is a case of a person who complained of recurring constipation related to their menstrual cycle. They noticed that a few days before the onset of their menstrual cycle and for the week of their menstrual cycle they develop constipation that aggravates their bloating and abdominal pain. They are not overweight. They have tried over-the-counter laxatives and tried some standard prescription laxatives that caused them to feel more bloated. […] Their doctor gave them a prescription of cetilistat (one 60 mg oral pill once a day with food) to be taken one to three days before the onset of their menstruation. In the fourth week of their period, they noticed normalization of their bowel movement and required to take the cetilistat only as needed. Often they only need to take it three times during their menstrual cycle. […] Typically, they required the cetilistat 3-7 days per cycle. […] Further, the cetilistat may be used as needed as a medication for constipation."}, "[12]": {"details": "orlistat 120 mg twice a day as needed with food"}, "[13]": {"details": "orlistat 120 mg once or twice a day"}}}
{"smiles": "CCCCCCCCCCC[C@@H](C[C@@H]1OC(=O)[C@H]1CCCCCC)OC(=O)[C@H](CC(C)C)NC=O", "note": "[orlistat]", "values": [{"measurement": "bowel movements after cessation", "setting": "[1]; after stopping orlistat at seven days", "result": "continue to be normal"}, {"measurement": "bowel movements on treatment", "setting": "[1]; orlistat 120 mg once daily", "result": "normal and regular"}, {"measurement": "time to resolution of constipation", "setting": "[1]; orlistat 120 mg orally once daily with food for one week", "result": "≤ 24", "unit": "h"}, {"measurement": "bowel formation", "setting": "[2]", "result": "long-term improvement in bowel formation"}, {"measurement": "bowel movements", "setting": "[2]", "result": "soft and allowing for more regular, daily movements"}, {"measurement": "need for enemas and manual disempaction", "setting": "[2]", "result": "significant reduction of therapeutic enemas and manual disempaction"}, {"measurement": "abdominal pain", "setting": "[3]; orlistat 120 mg once daily", "result": "no longer had abdominal pain"}, {"measurement": "bloating", "setting": "[3]; orlistat 120 mg once daily", "result": "greatly improved"}, {"measurement": "stool consistency", "setting": "[3]; orlistat 120 mg once daily", "result": "softened their stool"}, {"measurement": "average bowel movement frequency", "setting": "[3]; orlistat 120 mg orally once daily with food", "result": "once a day"}, {"measurement": "stool and bowel movements", "setting": "[4]; orlistat 120 mg once a day increased to three times per day with food, then twice per day as maintenance", "result": "softening of their stool, and the formation of regular bowel movements daily"}, {"measurement": "need for Fleet enemas and disempaction", "setting": "[4]; orlistat, maintenance 120 mg twice per day", "result": "cessation of the Fleet enemas and the disempaction"}, {"measurement": "long-term outcome", "setting": "[5]; combined medication for over two years", "result": "sustained good results"}, {"measurement": "abdominal pain", "setting": "[5]; [12]", "result": "resolved"}, {"measurement": "bloating", "setting": "[5]; [12]", "result": "resolved"}, {"measurement": "occasional diarrhea", "setting": "[5]; [12]", "result": "resolved"}, {"measurement": "overall fibromyalgia", "setting": "[5]; [12]", "result": "improvement in their overall fibromyalgia"}, {"measurement": "constipation", "setting": "[5]; orlistat 120 mg twice a day as needed with food, with Lyrica, Flexeril, Percocet, Celebrex", "result": "resolved"}, {"measurement": "bloating", "setting": "[6]; orlistat 120 mg once or twice a day as needed with food", "result": "reduced bloating"}, {"measurement": "abdominal pain", "setting": "[6]; [13]", "result": "resolution of their abdominal pain"}, {"measurement": "diarrhea", "setting": "[6]; [13]", "result": "no episodes of diarrhea"}, {"measurement": "muscles of abdomen and lower back", "setting": "[6]; [13]", "result": "relaxation of the muscles of their abdomen and lower back"}, {"measurement": "straining with bowel movements", "setting": "[6]; [13]", "result": "less straining with bowel movements"}, {"measurement": "bloating", "setting": "[7]", "result": "great improvement of their bloating"}, {"measurement": "abdominal pain and heartburn", "setting": "[7]; over 4 to 6 weeks", "result": "great improvement of their abdominal pain and heartburn"}, {"measurement": "time to noticed improvement of constipation", "setting": "[8]; orlistat 120 mg BID orally with food, patient on MS Contin 60 mg BID", "result": "≤ 24", "unit": "h"}, {"measurement": "bowel movements within one week", "setting": "[8]; orlistat 120 mg BID orally with food, within one week", "result": "daily bowel movements"}, {"measurement": "bowel movements over one year of treatment", "setting": "[8]; orlistat 120 mg BID, one year", "result": "good well-formed bowel movements most days"}, {"measurement": "side effects reported", "setting": "[8]; orlistat 120 mg BID, one year", "result": "no major side effects"}]}
{"smiles": "CCCCCCCCCCCCCCCCOc1nc2ccc(C)cc2c(=O)o1", "note": "[cetilistat]", "values": [{"measurement": "side effects reported", "setting": "[9]; cetilistat 60 mg once per day, one year", "result": "no major side effects"}, {"measurement": "time to bowel movement", "setting": "[9]; cetilistat 60 mg orally once per day with food, patient on amitriptyline", "result": "≤ 24", "unit": "h"}, {"measurement": "bowel movements on continued daily treatment", "setting": "[9]; cetilistat one pill per day", "result": "regular bowel movements daily"}, {"measurement": "outcome after a year of amitriptyline and cetilistat", "setting": "[9]; one year", "result": "good success with treatment of fibromyalgia and daily bowel movements"}, {"measurement": "abdominal bloating and abdominal pain", "setting": "[10]", "result": "resolved"}, {"measurement": "bowel movement regularity", "setting": "[10]", "result": "regular bowel movements daily"}, {"measurement": "quality of the bowel movement", "setting": "[10]", "result": "painless and soft"}, {"measurement": "anal fissure and rectal bleeding", "setting": "[10]; over two weeks", "result": "the anal fissure had healed and the bleeding had stopped"}, {"measurement": "relief of constipation on days of use", "setting": "[11]", "result": "good relief of their constipation with regular, soft bowel movements"}]}
